Laboratory results reported in patent publication US7048917B1, “Fat-binding polymers” (Genzyme Corporation, priority 1998, dated 2006).

Tested on: Sprague Dawly rats
Assay: Fat-Binding Evaluation via Paper Staining
Assay type: in vivo
Conditions: male rats, chow diet with 15 percent lard; lipase inhibitor (Orlistat) 0.04 percent by weight, no polymer; average of 24 experiments
Procedure: The model consists of male, Sprague Dawly rats, 160 g, housed individually in wire mesh cages. They were acclimated to the facility for six days, during which time they were fed a chow based diet supplemented with 15 percent lard by weight. Feed and water were provided ad libitum. The animals were then randomly assigned to groups of four and fed test diets for three days. The test diet was also a chow based feed. A lipase inhibitor (Orlistat) was added at 0.04 percent by weight and the polymer was added at 0.30 percent by weight. They were mixed in the feed as a powder followed by the addition of the supplemented fat in the form of lard at 15 percent by weight. During the final 24 hours of the treatment period an 8.5″×11″ sheet of white paper was placed beneath each cage. One inch squares were drawn on the paper creating a grid of 80 squares. When oil in the form of unabsorbed dietary triglyceride seeps from the stool, it stains the paper. This can be readily discerned from urine if the papers were allowed to dry for six hours. The oil stains confer translucence to the paper. The squares that contain these oil stains were counted and expressed as a percentage of total area stained.

## CCCCCCCCCCC[C@@H](C[C@@H]1OC(=O)[C@H]1CCCCCC)OC(=O)[C@H](CC(C)C)NC=O [Control 2, Orlistat]
  Percentage of Paper Stained: 39 ± 6%
